Measured values from patent US20050020615A1, “CCI-779 lyophilized formulations” (Wyeth, priority 2003, published 2005).

What was measured:
[1] = system: human tumor xenografts of diverse histological types; conditions: nude mice; cited from earlier work
orthotopic glioma = conditions: nude mice; cited from earlier work
[2] = Chemical stability of CCI-779 in solution (pH, chelating agent); format: physicochemical; conditions: citric acid at less than 0.01% w/v
Source text: Desirably, when a significant amount of water (e.g,. 40% v/v or greater) is present in the solvent blend of the pre-lyophilized solution, it is advantageous to adjust the pH to 4 to 6 as this is the range of maximum stability for CCI-779. In one embodiment, the pH is adjusted to a pH of about 5.5.
In some embodiments, components with chelating activity are included in the formulations of the invention as the sole “antioxidant component”. Typically, such metal-binding components, when acting as chelating agents are used in the lower end of the range of concentrations for the antioxidant component provided herein. […] Additionally, such chelating agents may be used in combination with other antioxidants as part of the antioxidant component of the invention. For example, an acceptable formulation may contain both citric acid and d,l-α-tocopherol. Optimal concentrations for the selected antioxidant(s) can be readily determined by one of skill in the art, based upon the information provided herein. All percentages are expressed a % w/v in the pre-lyophilized solution.
Desirably, the pre-lyophilization solution has a pH in the range of 4 to 6, which has been found by the inventor to improve the stability of CCI-779. Depending upon the components of the pre-lyophilization solution, the pH can be adjusted using any suitable inorganic or organic acid, or base, as needed. […]

[3] = system: human glioblastoma cell line; conditions: in vitro, platelet-derived growth factor; cited from earlier work
Solubility in water = format: physicochemical
[4] = system: histologically diverse tumor cells; conditions: in vitro; cited from earlier work

effect of citric acid on stability of CCI-779 [2]: enhanced the stability | solubility in water (Solubility in water): poor solubility in water
Structure (SMILES): CO[C@H]1C[C@@H]2CC[C@@H](C)[C@@](O)(O2)C(=O)C(=O)N2CCCC[C@H]2C(=O)O[C@H]([C@H](C)C[C@@H]2CC[C@@H](OC(=O)C(C)(CO)CO)[C@H](OC)C2)CC(=O)[C@H](C)/C=C(\C)[C@@H](O)[C@@H](OC)C(=O)[C@H](C)C[C@H](C)/C=C/C=C/C=C/1C [CCI-779, rapamycin 42-ester with 3-hydroxy-2-(hydroxymethyl)-2-methylpropionic acid]
activity against xenografts [1]: has activity | activity in orthotopic glioma model (orthotopic glioma): active | growth factor-induced stimulation of cells [3]: markedly suppressed | growth of tumor cells [4]: inhibit the growth
